# From PubChem BioAssay (NCI)
#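 Method: 48-hour compound exposure of cells in 96-well plates, five concentrations, linear interpolation of endpoints. GI50: concentration for 50% inhibition of growth. The concentration for full growth arrest is given as TGI.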
# Tests used:
# Experiment in all cases: NCI anticancer screen, dose series, 48 h
# DU-145 prostate = system: DU-145 prostate
# IGROV1 ovarian = system: IGROV1 ovarian
# RPMI-8226 leukemia = system: RPMI-8226 leukemia
# NCI-H522 lung = system: NCI-H522 lung
# HT29 colon = system: HT29 colon
# ACHN renal = system: ACHN renal
# PC-3 prostate = system: PC-3 prostate
# SK-MEL-2 melanoma = system: SK-MEL-2 melanoma
# MCF7 breast = system: MCF7 breast
# RXF 393 renal = system: RXF 393 renal
# MOLT-4 leukemia = system: MOLT-4 leukemia
# COLO 205 colon = system: COLO 205 colon
# UO-31 renal = system: UO-31 renal
# SK-OV-3 ovarian = system: SK-OV-3 ovarian
# HS 578T breast = system: HS 578T breast
# SF-268 CNS = system: SF-268 CNS
# MDA-MB-231 breast = system: MDA-MB-231 breast
# LOX IMVI melanoma = system: LOX IMVI melanoma
# SW-620 colon = system: SW-620 colon
# EKVX NSCLC = system: EKVX NSCLC
# CAKI-1 renal = system: CAKI-1 renal
# NCI-H23 lung = system: NCI-H23 lung
# SNB-19 CNS = system: SNB-19 CNS
# NCI/ADR-RES ovarian = system: NCI/ADR-RES ovarian
# SN12C renal = system: SN12C renal
# K-562 leukemia = system: K-562 leukemia
# HOP-62 NSCLC = system: HOP-62 NSCLC
# UACC-62 melanoma = system: UACC-62 melanoma
# SK-MEL-5 melanoma = system: SK-MEL-5 melanoma
# KM12 colon = system: KM12 colon
# OVCAR-8 ovarian = system: OVCAR-8 ovarian
# T-47D breast = system: T-47D breast
# 786-0 renal = system: 786-0 renal
# UACC-257 melanoma = system: UACC-257 melanoma
# TK-10 renal = system: TK-10 renal
# HL-60(TB) leukemia = system: HL-60(TB) leukemia
# HCT-15 colon = system: HCT-15 colon
# MDA-MB-435 = system: MDA-MB-435
# BT-549 breast = system: BT-549 breast
# U251 CNS = system: U251 CNS
# HCC-2998 colon = system: HCC-2998 colon
# HOP-92 NSCLC = system: HOP-92 NSCLC
# SF-295 CNS = system: SF-295 CNS
# SF-539 CNS = system: SF-539 CNS
# NCI-H226 lung = system: NCI-H226 lung
# M14 melanoma = system: M14 melanoma
# A498 renal = system: A498 renal
# OVCAR-5 ovarian = system: OVCAR-5 ovarian
# CCRF-CEM leukemia = system: CCRF-CEM leukemia
# A549 NSCLC = system: A549 NSCLC
# OVCAR-3 ovarian = system: OVCAR-3 ovarian
# OVCAR-4 ovarian = system: OVCAR-4 ovarian
# SK-MEL-28 melanoma = system: SK-MEL-28 melanoma
# MALME-3M melanoma = system: MALME-3M melanoma
# NCI-H460 lung = system: NCI-H460 lung
# HCT-116 colon = system: HCT-116 colon
structure (smiles),measurement,setting,value
CCOc1cc2ncc(C#N)c(Nc3ccc(F)c(Cl)c3)c2cc1NC(=O)CC1CCSS1 (configuration not stated),GI50,DU-145 prostate,580 nM
same,TGI,DU-145 prostate,1280 nM
same,GI50,IGROV1 ovarian,392 nM
same,TGI,IGROV1 ovarian,1630 nM
same,GI50,RPMI-8226 leukemia,1640 nM
same,TGI,RPMI-8226 leukemia,33300 nM
same,GI50,NCI-H522 lung,786 nM
same,TGI,NCI-H522 lung,4700 nM
same,GI50,HT29 colon,603 nM
same,TGI,HT29 colon,1200 nM
same,GI50,ACHN renal,429 nM
same,TGI,ACHN renal,1150 nM
same,GI50,PC-3 prostate,629 nM
same,TGI,PC-3 prostate,1210 nM
same,GI50,SK-MEL-2 melanoma,697 nM
same,TGI,SK-MEL-2 melanoma,2000 nM
same,GI50,MCF7 breast,694 nM
same,TGI,MCF7 breast,1900 nM
same,GI50,RXF 393 renal,1130 nM
same,TGI,RXF 393 renal,3970 nM
same,GI50,MOLT-4 leukemia,748 nM
same,TGI,MOLT-4 leukemia,1890 nM
same,GI50,COLO 205 colon,982 nM
same,TGI,COLO 205 colon,3390 nM
same,GI50,UO-31 renal,395 nM
same,TGI,UO-31 renal,955 nM
same,GI50,SK-OV-3 ovarian,509 nM
same,TGI,SK-OV-3 ovarian,990 nM
same,GI50,HS 578T breast,1390 nM
same,TGI,HS 578T breast,11700 nM
same,GI50,SF-268 CNS,740 nM
same,TGI,SF-268 CNS,2230 nM
same,GI50,MDA-MB-231 breast,833 nM
same,TGI,MDA-MB-231 breast,2000 nM
same,GI50,LOX IMVI melanoma,579 nM
same,TGI,LOX IMVI melanoma,1170 nM
same,GI50,SW-620 colon,1040 nM
same,TGI,SW-620 colon,3570 nM
same,GI50,EKVX NSCLC,476 nM
same,TGI,EKVX NSCLC,1930 nM
same,GI50,CAKI-1 renal,979 nM
same,TGI,CAKI-1 renal,4590 nM
same,GI50,NCI-H23 lung,1120 nM
same,TGI,NCI-H23 lung,4550 nM
same,GI50,SNB-19 CNS,1980 nM
same,TGI,SNB-19 CNS,12300 nM
same,GI50,NCI/ADR-RES ovarian,751 nM
same,TGI,NCI/ADR-RES ovarian,2040 nM
same,GI50,SN12C renal,880 nM
same,TGI,SN12C renal,2500 nM
same,GI50,K-562 leukemia,881 nM
same,TGI,K-562 leukemia,2290 nM
same,GI50,HOP-62 NSCLC,533 nM
same,TGI,HOP-62 NSCLC,1160 nM
same,GI50,UACC-62 melanoma,1970 nM
same,TGI,UACC-62 melanoma,7280 nM
same,GI50,SK-MEL-5 melanoma,3240 nM
same,TGI,SK-MEL-5 melanoma,7230 nM
same,GI50,KM12 colon,563 nM
same,TGI,KM12 colon,1130 nM
same,GI50,OVCAR-8 ovarian,809 nM
same,TGI,OVCAR-8 ovarian,1920 nM
same,GI50,T-47D breast,1380 nM
same,TGI,T-47D breast,6920 nM
same,GI50,786-0 renal,1840 nM
same,TGI,786-0 renal,12900 nM
same,GI50,UACC-257 melanoma,1960 nM
same,TGI,UACC-257 melanoma,6920 nM
same,GI50,TK-10 renal,556 nM
same,TGI,TK-10 renal,1480 nM
same,GI50,HL-60(TB) leukemia,930 nM
same,TGI,HL-60(TB) leukemia,4000 nM
same,GI50,HCT-15 colon,649 nM
same,TGI,HCT-15 colon,1700 nM
same,GI50,MDA-MB-435,597 nM
same,TGI,MDA-MB-435,1230 nM
same,GI50,BT-549 breast,1500 nM
same,TGI,BT-549 breast,7460 nM
same,GI50,U251 CNS,1100 nM
same,TGI,U251 CNS,3460 nM
same,GI50,HCC-2998 colon,569 nM
same,TGI,HCC-2998 colon,1100 nM
same,GI50,HOP-92 NSCLC,3240 nM
same,TGI,HOP-92 NSCLC,13700 nM
same,GI50,SF-295 CNS,1650 nM
same,TGI,SF-295 CNS,6670 nM
same,GI50,SF-539 CNS,5000 nM
same,TGI,SF-539 CNS,17400 nM
same,GI50,NCI-H226 lung,2110 nM
same,TGI,NCI-H226 lung,7400 nM
same,GI50,M14 melanoma,572 nM
same,TGI,M14 melanoma,1330 nM
same,GI50,A498 renal,3050 nM
same,TGI,A498 renal,11400 nM
same,GI50,OVCAR-5 ovarian,2100 nM
same,TGI,OVCAR-5 ovarian,13500 nM
same,GI50,CCRF-CEM leukemia,792 nM
same,TGI,CCRF-CEM leukemia,2060 nM
same,GI50,A549 NSCLC,616 nM
same,TGI,A549 NSCLC,1160 nM
same,GI50,OVCAR-3 ovarian,717 nM
same,TGI,OVCAR-3 ovarian,2080 nM
same,GI50,OVCAR-4 ovarian,663 nM
same,TGI,OVCAR-4 ovarian,2350 nM
same,GI50,SK-MEL-28 melanoma,659 nM
same,TGI,SK-MEL-28 melanoma,1530 nM
same,GI50,MALME-3M melanoma,1640 nM
same,TGI,MALME-3M melanoma,6410 nM
same,GI50,NCI-H460 lung,676 nM
same,TGI,NCI-H460 lung,1410 nM
same,GI50,HCT-116 colon,630 nM
same,TGI,HCT-116 colon,1270 nM
